For the assay, the target named is Hypoxia-inducible factor 1-alpha (Homo sapiens, UniProt Q16665). Description: ChEBML_1685544. From the text: Inhibition of hypoxia-induced HIF1alpha (unknown origin) transcriptional activity expressed in human HCT116 cells by HRE luciferase reporter gene assay

Broadly, the IC50 is the point on the concentration scale where inhibition reaches its midpoint. A high value points to weaker potency in that assay.

Sequence of Hypoxia-inducible factor 1-alpha (Q16665 whole entry): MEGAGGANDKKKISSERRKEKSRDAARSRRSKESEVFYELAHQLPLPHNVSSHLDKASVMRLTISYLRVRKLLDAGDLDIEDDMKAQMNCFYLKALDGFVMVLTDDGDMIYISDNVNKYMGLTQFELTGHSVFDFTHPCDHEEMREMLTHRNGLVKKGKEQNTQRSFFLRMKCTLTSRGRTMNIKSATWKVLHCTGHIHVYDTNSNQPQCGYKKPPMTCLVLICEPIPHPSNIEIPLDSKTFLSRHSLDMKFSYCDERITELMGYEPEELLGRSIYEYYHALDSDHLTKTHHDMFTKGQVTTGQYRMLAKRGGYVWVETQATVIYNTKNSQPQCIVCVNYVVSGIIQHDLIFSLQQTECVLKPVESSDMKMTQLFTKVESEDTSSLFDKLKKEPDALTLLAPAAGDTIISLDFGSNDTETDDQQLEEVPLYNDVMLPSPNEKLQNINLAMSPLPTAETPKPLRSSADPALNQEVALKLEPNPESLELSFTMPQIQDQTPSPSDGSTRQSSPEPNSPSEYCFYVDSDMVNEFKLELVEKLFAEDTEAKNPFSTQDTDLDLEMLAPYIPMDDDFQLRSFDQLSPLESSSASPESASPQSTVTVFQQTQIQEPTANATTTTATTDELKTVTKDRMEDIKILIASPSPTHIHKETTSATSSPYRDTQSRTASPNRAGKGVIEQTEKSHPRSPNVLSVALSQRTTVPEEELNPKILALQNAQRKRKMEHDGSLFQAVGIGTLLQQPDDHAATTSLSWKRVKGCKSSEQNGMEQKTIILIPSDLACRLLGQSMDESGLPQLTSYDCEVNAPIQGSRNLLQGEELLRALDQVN

As for `CO/N=C(/C(=O)OC)c1ccccc1COc1cccc(O)c1`, half-maximal inhibition (IC50) required 9.16 µM.
As for `CO/N=C(/C(=O)OC)c1ccccc1COc1cccc(OCc2ccc(Cl)cc2)c1`, the IC50 came out at 0.6 µM.
As for `CO/N=C(/C(=O)OC)c1ccccc1COc1cccc(OCC#N)c1`, the IC50 was > 20 µM.
As to `CO/N=C/c1ccc(OC)c(OCc2ccccc2/C(=N\OC)C(=O)OC)c1`, the midpoint of inhibition, the IC50, lay at 14.9 µM.
The value for `CO/N=C(\C)c1cccc(OCc2ccccc2/C(=N\OC)C(=O)OC)c1` was 4.52 µM; that for `C=Cc1ccc(COc2cccc(OCc3ccccc3/C(=N\OC)C(=O)OC)c2)cc1` was 0.87 µM; that for `CO/N=C/c1cccc(OCc2ccccc2/C(=N\OC)C(=O)OC)c1` was 3.4 µM.
Regarding `CO/N=C(/C(=O)OC)c1ccccc1COc1cccc(OCc2ccccc2)c1`, the IC50 worked out at 1.12 µM.
Regarding `CO/N=C(/C(=O)OC)c1ccccc1COc1cccc(OCc2cc(C(F)(F)F)cc(C(F)(F)F)c2)c1`, the IC50 is 0.94 µM.

The record behind these values is BindingDB's records for doi:10.1016/j.bmcl.2017.05.024 (Yeungnam University, 2017).
